The text below walks through data of the NIST ThermoML archive (doi:10.1016/j.tca.2009.08.016).

Numbers after ± are expanded uncertainties.

The nature of data set [1]: Molar enthalpy of transition or fusion. Conditions: Crystal; DSC.
For data set [2] the following is noted: Crystal; DTA.

Consider `CCN(CC)CC(=O)Nc1c(C)cccc1C` [2-(diethylamino)-N-(2,6-dimethylphenyl)acetamide], for which the “Molar enthalpy of transition or fusion” value in data set [1] was 3.92 ± 0.12 kcal/mol. Further, the Normal melting temperature in data set [2] was found to be 67.54 ± 1.1 °C.

As for `O=C(Oc1ccccc1)c1ccccc1O` [phenyl salicylate], the “Molar enthalpy of transition or fusion” value in data set [1] was 4.59 ± 0.239 kcal/mol. Besides, in data set [2], the Normal melting temperature was 41.93 ± 1.1 °C.
